From patent US12054447B2, “PCNA inhibitors” (City of Hope, priority 2015, dated 2024)

Tested on: neuroblastoma cells (SH-SY5Y and SK-N-BE(2)c)
Test: Cell cycle analysis
Format: cell-based
Details: not given
Method: Cells were seeded at 1×10^5/ml in a 6-well plate. Once attached overnight, cells were treated with or without AOH1160 for 6 or 24 h. After being fixed in 60% ethanol and stained with propidium iodide (PI), cells were analyzed by flow cytometry to determine the cellular PI fluorescence intensity. The flow cytometry data were analyzed by the FlowJo program to model various cell populations.

Structure (SMILES) | cell cycle effect
O=C(CNC(=O)c1cccc2ccccc12)Nc1ccccc1Oc1ccccc1 [AOH1160] | caused S/G2 cell cycle arrest

Tested on: RPMI-8226
Test: NCI-60 panel test
Format: cell-based
Details: Homo sapiens; RPMI-8226, NCI-60 5-dose study
Method: (§1) FIG. 7. NCI-60 panel test. The effect of AOH1160 on growth of the NCI-60 panel, which consists of 60 cancer cell lines representing 9 major cancer types, was tested in a 5-dose study. Shown are the Log IC50 values determined for each cell line. […] This study was performed by the National Institute of Cancer.
(§2) As observed in FIG. 7, the effect of AOH1160 on growth of the NCI-60 panel, which consists of 60 cancer cell lines representing 9 major cancer types, was tested in a 5-dose study. Shown are the Log IC50 values determined for each cell line.

Structure (SMILES) | GI50
O=C(CNC(=O)c1cccc2ccccc12)Nc1ccccc1Oc1ccccc1 [AOH1160] | 316 nM

Tested on: HL-60(TB)
Test: NCI-60 panel test
Format: cell-based
Details: Homo sapiens, NCI-60 5-dose study
Method: as §1, §2

Structure (SMILES) | GI50
O=C(CNC(=O)c1cccc2ccccc12)Nc1ccccc1Oc1ccccc1 [AOH1160] | 269 nM

Tested on: UO-31
Test: NCI-60 panel test
Format: cell-based
Details: Homo sapiens; UO-31, NCI-60 5-dose study
Method: as §1, §2

Structure (SMILES) | GI50
O=C(CNC(=O)c1cccc2ccccc12)Nc1ccccc1Oc1ccccc1 [AOH1160] | 646 nM

Tested on: T-47D
Test: NCI-60 panel test
Format: cell-based
Details: Homo sapiens, T47D, NCI-60 5-dose study
Method: as §1, §2

Structure (SMILES) | GI50
O=C(CNC(=O)c1cccc2ccccc12)Nc1ccccc1Oc1ccccc1 [AOH1160] | 537 nM

Tested on: UACC-62
Test: NCI-60 panel test
Format: cell-based
Details: Homo sapiens; UACC-62, NCI-60 5-dose study
Method: as §1, §2

Structure (SMILES) | GI50
O=C(CNC(=O)c1cccc2ccccc12)Nc1ccccc1Oc1ccccc1 [AOH1160] | 178 nM

Tested on: OVCAR-4
Test: NCI-60 panel test
Format: cell-based
Details: Homo sapiens; OVCAR-4, NCI-60 5-dose study
Method: as §1, §2

Structure (SMILES) | GI50
O=C(CNC(=O)c1cccc2ccccc12)Nc1ccccc1Oc1ccccc1 [AOH1160] | 4570 nM

Tested on: NCI-H460
Test: NCI-60 panel test
Format: cell-based
Details: Homo sapiens; NCI-H460, NCI-60 5-dose study
Method: as §1, §2

Structure (SMILES) | GI50
O=C(CNC(=O)c1cccc2ccccc12)Nc1ccccc1Oc1ccccc1 [AOH1160] | 331 nM

Tested on: SR
Test: NCI-60 panel test
Format: cell-based
Details: Homo sapiens, NCI-60 5-dose study
Method: as §1, §2

Structure (SMILES) | GI50
O=C(CNC(=O)c1cccc2ccccc12)Nc1ccccc1Oc1ccccc1 [AOH1160] | 83.2 nM

Tested on: ACHN
Test: NCI-60 panel test
Format: cell-based
Details: Homo sapiens, NCI-60 5-dose study
Method: as §1, §2

Structure (SMILES) | GI50
O=C(CNC(=O)c1cccc2ccccc12)Nc1ccccc1Oc1ccccc1 [AOH1160] | 832 nM

Tested on: HT29
Test: NCI-60 panel test
Format: cell-based
Details: Homo sapiens, HT-29; HT29, NCI-60 5-dose study
Method: as §1, §2

Structure (SMILES) | GI50
O=C(CNC(=O)c1cccc2ccccc12)Nc1ccccc1Oc1ccccc1 [AOH1160] | 288 nM

Tested on: SK-MEL-5
Test: NCI-60 panel test
Format: cell-based
Details: Homo sapiens; SK-MEL-5, NCI-60 5-dose study
Method: as §1, §2

Structure (SMILES) | GI50
O=C(CNC(=O)c1cccc2ccccc12)Nc1ccccc1Oc1ccccc1 [AOH1160] | 263 nM

Tested on: DU-145
Test: NCI-60 panel test
Format: cell-based
Details: Homo sapiens; DU-145, NCI-60 5-dose study
Method: as §1, §2

Structure (SMILES) | GI50
O=C(CNC(=O)c1cccc2ccccc12)Nc1ccccc1Oc1ccccc1 [AOH1160] | 324 nM

Tested on: A549/ATCC
Test: NCI-60 panel test
Format: cell-based
Details: Homo sapiens, NCI-60 5-dose study
Method: as §1, §2

Structure (SMILES) | GI50
O=C(CNC(=O)c1cccc2ccccc12)Nc1ccccc1Oc1ccccc1 [AOH1160] | 457 nM

Tested on: EKVX
Test: NCI-60 panel test
Format: cell-based
Details: Homo sapiens, NCI-60 5-dose study
Method: as §1, §2

Structure (SMILES) | GI50
O=C(CNC(=O)c1cccc2ccccc12)Nc1ccccc1Oc1ccccc1 [AOH1160] | 776 nM

Tested on: SF-539
Test: NCI-60 panel test
Format: cell-based
Details: Homo sapiens; SF-539, NCI-60 5-dose study
Method: as §1, §2

Structure (SMILES) | GI50
O=C(CNC(=O)c1cccc2ccccc12)Nc1ccccc1Oc1ccccc1 [AOH1160] | 240 nM

Tested on: TK-10
Test: NCI-60 panel test
Format: cell-based
Details: Homo sapiens; TK-10, NCI-60 5-dose study
Method: as §1, §2

Structure (SMILES) | GI50
O=C(CNC(=O)c1cccc2ccccc12)Nc1ccccc1Oc1ccccc1 [AOH1160] | 617 nM

Tested on: HS 578T
Test: NCI-60 panel test
Format: cell-based
Details: Homo sapiens, NCI-60 5-dose study
Method: as §1, §2

Structure (SMILES) | GI50
O=C(CNC(=O)c1cccc2ccccc12)Nc1ccccc1Oc1ccccc1 [AOH1160] | 363 nM

Tested on: SF-295
Test: NCI-60 panel test
Format: cell-based
Details: Homo sapiens; SF-295, NCI-60 5-dose study
Method: as §1, §2

Structure (SMILES) | GI50
O=C(CNC(=O)c1cccc2ccccc12)Nc1ccccc1Oc1ccccc1 [AOH1160] | 251 nM

Tested on: OVCAR-3
Test: NCI-60 panel test
Format: cell-based
Details: Homo sapiens; OVCAR-3, NCI-60 5-dose study
Method: as §1, §2

Structure (SMILES) | GI50
O=C(CNC(=O)c1cccc2ccccc12)Nc1ccccc1Oc1ccccc1 [AOH1160] | 191 nM

Tested on: MDA-MB-231/ATCC
Test: NCI-60 panel test
Format: cell-based
Details: Homo sapiens, NCI-60 5-dose study
Method: as §1, §2

Structure (SMILES) | GI50
O=C(CNC(=O)c1cccc2ccccc12)Nc1ccccc1Oc1ccccc1 [AOH1160] | 977 nM

Tested on: non-malignant cells
Test: Toxicity to non-malignant cells
Format: cell-based
Details: PBMC and 7SM0032 cells
Method: (§3) To measure the effect of the compounds on cell growth, cells were seeded at 3×10^4/ml into a 96-well plate. Once attached, cells were treated with various concentrations of AOH1160 for 72 h. Cell growth was measured by the CellTitor-Glo assay (Promega, Madison, WI) according to the manufacturer's instructions. To measure apoptosis, cells were seeded at 1×10^5/ml onto a chamber slide. Once attached, cells were treated with the 500 nM AOH1160 for 24 h. Cells were fixed and analyzed by a TUNEL assay using the TMR red in situ cell death detection kit (Roche Diagnostics, Indianapolis, IN).
To improve the anti-tumor potency of the compound while preserving its favorable selectivity, a series of compounds were synthesized and tested. […] The combined improvements in potency and selectivity lead to a significant improvement in the therapeutic window (FIG. 1). AOH1160 was tested in a broad range of non-malignant cells, including human primary mammary epithelial and small airway epithelial cells, and no significant toxicity was found in these cells up to a concentration of 10 μM.

Structure (SMILES) | toxicity to non-malignant cells compared with AOH39
O=C(CNC(=O)c1cccc2ccccc12)Nc1ccccc1Oc1ccccc1 [AOH1160] | less toxic to non-malignant PBMC and 7SM0032 cells than AOH39

Same assay, conditions: broad range of non-malignant cells incl. human primary mammary epithelial and small airway epithelial cells

Structure (SMILES) | concentration causing significant toxicity (none found up to)
O=C(CNC(=O)c1cccc2ccccc12)Nc1ccccc1Oc1ccccc1 [AOH1160] | > 10 µM

Tested on: SK-N-DZ
Test: Cell growth, CellTitor-Glo assay, 72 h
Format: cell-based
Details: Homo sapiens
Method: (§4) The human NB cell lines, SK-N-DZ, SK-N-BE(2)c, SK-N-AS, and LAN-5 obtained from the American Type Culture Collection (Rockville, MD), were cultured in DMEM with 10% fetal bovine serum (FBS), 100 units/ml penicillin, and 100 μg/ml streptomycin in the presence of 5% CO2 at 37° C. Human PBMCs from a healthy donor were purchased from Sanguine BioSciences (Valencia, CA) and grown in RPMI1640 with 10% FBS, 100 units/ml penicillin, 100 μg/ml streptomycin, and 10 ng/ml IL-2 in the presence of 5% CO2 at 37° C. Human embryonic progenitor cell line 7SM0032 was acquired from Millipore (Billerica, MA) and grown in the hEPM-1 Media Kit purchased from the same company. The plasmid pCBASce expresses the rare cutting I-SceI meganuclease. The U20S-derived cell lines, DR-GFP and EJ5-GFP, each contain a stably transfected reporter gene for DSB repair mediated by HR and end joining (EJ), respectively. These cell lines were cultured in DMEM medium with 10% FBS at 37° C. in the presence of 5% CO2.
as §3

Structure (SMILES) | IC50
O=C(CNC(=O)c1cccc2ccccc12)Nc1ccccc1Oc1ccccc1 [AOH1160] | 238 nM

Tested on: SK-N-BE(2)c
Test: Cell growth, CellTitor-Glo assay, 72 h
Format: cell-based
Details: Homo sapiens
Method: as §4, §3

Structure (SMILES) | IC50
O=C(CNC(=O)c1cccc2ccccc12)Nc1ccccc1Oc1ccccc1 [AOH1160] | 326 nM

Tested on: SK-N-AS
Test: Cell growth, CellTitor-Glo assay, 72 h
Format: cell-based
Details: Homo sapiens
Method: as §4, §3

Structure (SMILES) | IC50
O=C(CNC(=O)c1cccc2ccccc12)Nc1ccccc1Oc1ccccc1 [AOH1160] | 108 nM

Tested on: PBMC
Test: Cell growth, CellTitor-Glo assay, 72 h
Format: cell-based, human
Details: Homo sapiens; PBMC (non-malignant)
Method: as §4, §3

Structure (SMILES) | IC50
O=C(CNC(=O)c1cccc2ccccc12)Nc1ccccc1Oc1ccccc1 [AOH1160] | > 20000 nM
